Like-named read-outs stand apart in the source and are kept apart here. Where only a bound is given, the exact number is not on record here.

Broadly, the IC50 is the midpoint of a concentration-inhibition curve.

For assay [1], the target named is FGFR2 (Homo sapiens (Human), UniProt P21802). The assay is described as follows: FGFR Enzymatic Assay (FRET peptide phosphorylation), FGFR2. The class given is biochemical. The protocol:
(§1) The inhibitor potency of the exemplified compounds was measured in an enzyme assay that measures peptide phosphorylation using FRET measurements to detect product formation. Inhibitors were serially diluted in DMSO and a volume of 0.5 μL was transferred to the wells of a 384-well plate.
(§2) The enzymes were purchased from Millipore or Invitrogen.
(§3) GraphPad prism3 was used to analyze the data.

The target in assay [2] is FGFR3 enzyme (Homo sapiens (Human), UniProt P22607). The assay is described as follows: FGFR Enzymatic Assay (FRET peptide phosphorylation), FGFR3. The class given is biochemical. The settings on record: for FGFR1/FGFR3 IC50 ratio: FGFR3 selectivity; for IC50: read-out: FGFR3 IC50. The protocol:
as §1, §3

In assay [3] the target is FGFR4 (Homo sapiens (Human), UniProt P22455). The assay is described as follows: FGFR Enzymatic Assay (FRET peptide phosphorylation), FGFR4. The settings on record: for FGFR1/FGFR4 IC50 ratio / FGFR2/FGFR4 IC50 ratio / FGFR3/FGFR4 IC50 ratio: FGFR4 selectivity. The class given is biochemical. Here is the method:
as §1, §2, §3

For assay [4], the target named is FGFR1 (Homo sapiens (Human), UniProt P11362). Description: FGFR Enzymatic Assay (FRET peptide phosphorylation), FGFR1.
Sequence of FGFR1 (P11362 22-822): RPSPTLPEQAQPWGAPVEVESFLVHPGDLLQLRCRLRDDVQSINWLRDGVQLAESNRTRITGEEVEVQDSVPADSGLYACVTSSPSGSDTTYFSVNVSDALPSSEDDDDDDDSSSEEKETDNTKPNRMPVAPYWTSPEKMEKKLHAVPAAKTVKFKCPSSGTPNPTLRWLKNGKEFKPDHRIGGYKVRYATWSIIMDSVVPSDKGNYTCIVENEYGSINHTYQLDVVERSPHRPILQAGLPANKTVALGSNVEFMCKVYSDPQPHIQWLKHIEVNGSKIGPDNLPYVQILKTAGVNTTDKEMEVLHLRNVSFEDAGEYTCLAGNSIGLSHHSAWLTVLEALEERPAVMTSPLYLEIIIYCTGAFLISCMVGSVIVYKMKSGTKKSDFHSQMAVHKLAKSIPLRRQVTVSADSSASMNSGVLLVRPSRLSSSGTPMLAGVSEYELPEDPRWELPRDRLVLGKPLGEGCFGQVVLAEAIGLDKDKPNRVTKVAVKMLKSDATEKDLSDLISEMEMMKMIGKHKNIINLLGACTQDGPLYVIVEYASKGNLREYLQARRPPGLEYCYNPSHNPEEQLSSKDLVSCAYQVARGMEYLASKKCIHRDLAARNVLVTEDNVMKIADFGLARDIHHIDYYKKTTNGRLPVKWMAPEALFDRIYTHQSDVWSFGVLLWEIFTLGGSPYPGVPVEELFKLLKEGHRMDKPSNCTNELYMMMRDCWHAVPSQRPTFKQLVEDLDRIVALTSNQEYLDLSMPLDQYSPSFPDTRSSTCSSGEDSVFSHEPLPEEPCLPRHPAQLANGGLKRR
Where [5] appears, read: pre-incubated for 5 to 10 minutes.
Where [6] appears, read: read-out: FGFR1 IC50, pre-incubated for 5 to 10 minutes.
[7] abbreviates: read-out: FGFR1 IC50, pre-incubated for 4 hours.

Sequence of FGFR2 (P21802 22-821): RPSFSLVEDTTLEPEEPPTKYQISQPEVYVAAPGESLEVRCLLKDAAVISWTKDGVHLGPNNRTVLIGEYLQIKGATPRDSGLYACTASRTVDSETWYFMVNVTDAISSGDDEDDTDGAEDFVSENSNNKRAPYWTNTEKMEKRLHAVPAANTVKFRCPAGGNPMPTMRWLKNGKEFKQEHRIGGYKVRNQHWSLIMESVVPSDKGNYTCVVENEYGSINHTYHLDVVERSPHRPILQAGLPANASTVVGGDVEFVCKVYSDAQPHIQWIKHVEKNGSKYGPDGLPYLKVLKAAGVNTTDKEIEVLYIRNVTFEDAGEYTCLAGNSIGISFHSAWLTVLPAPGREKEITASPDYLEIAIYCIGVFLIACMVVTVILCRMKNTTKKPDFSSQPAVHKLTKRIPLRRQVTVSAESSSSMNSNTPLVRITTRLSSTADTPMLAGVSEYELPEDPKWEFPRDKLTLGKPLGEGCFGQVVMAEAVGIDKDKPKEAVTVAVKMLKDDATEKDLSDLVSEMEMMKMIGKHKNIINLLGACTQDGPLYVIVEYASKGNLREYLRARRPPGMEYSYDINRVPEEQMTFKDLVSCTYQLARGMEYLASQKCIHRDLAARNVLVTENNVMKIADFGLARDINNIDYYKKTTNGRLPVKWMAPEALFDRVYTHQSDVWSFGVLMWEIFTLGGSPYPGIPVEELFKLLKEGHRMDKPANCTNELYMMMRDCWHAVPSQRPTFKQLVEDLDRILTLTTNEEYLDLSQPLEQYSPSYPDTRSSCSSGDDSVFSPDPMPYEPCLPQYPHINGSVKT
Sequence of FGFR3 enzyme (P22607 23-806): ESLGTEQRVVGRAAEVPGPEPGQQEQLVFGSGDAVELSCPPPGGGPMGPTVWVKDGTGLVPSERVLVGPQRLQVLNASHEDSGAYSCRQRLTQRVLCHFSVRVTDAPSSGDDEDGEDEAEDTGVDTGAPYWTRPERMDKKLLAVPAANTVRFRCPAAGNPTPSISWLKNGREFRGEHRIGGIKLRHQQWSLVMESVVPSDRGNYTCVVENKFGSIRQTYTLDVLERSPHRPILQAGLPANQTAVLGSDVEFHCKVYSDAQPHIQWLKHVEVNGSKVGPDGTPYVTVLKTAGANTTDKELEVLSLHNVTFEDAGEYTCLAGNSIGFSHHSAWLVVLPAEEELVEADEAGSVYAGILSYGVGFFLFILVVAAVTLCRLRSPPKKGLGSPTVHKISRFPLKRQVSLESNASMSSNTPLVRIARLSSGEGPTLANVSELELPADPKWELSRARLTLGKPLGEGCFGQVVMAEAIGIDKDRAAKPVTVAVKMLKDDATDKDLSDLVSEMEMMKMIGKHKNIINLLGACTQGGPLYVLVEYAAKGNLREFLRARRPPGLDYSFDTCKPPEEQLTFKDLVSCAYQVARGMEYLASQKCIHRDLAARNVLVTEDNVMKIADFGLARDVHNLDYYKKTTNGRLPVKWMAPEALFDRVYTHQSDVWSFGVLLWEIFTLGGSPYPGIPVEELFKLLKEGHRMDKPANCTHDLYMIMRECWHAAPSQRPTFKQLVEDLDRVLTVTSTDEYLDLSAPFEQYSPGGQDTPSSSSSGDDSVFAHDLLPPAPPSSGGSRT
Sequence of FGFR4 (P22455 22-802): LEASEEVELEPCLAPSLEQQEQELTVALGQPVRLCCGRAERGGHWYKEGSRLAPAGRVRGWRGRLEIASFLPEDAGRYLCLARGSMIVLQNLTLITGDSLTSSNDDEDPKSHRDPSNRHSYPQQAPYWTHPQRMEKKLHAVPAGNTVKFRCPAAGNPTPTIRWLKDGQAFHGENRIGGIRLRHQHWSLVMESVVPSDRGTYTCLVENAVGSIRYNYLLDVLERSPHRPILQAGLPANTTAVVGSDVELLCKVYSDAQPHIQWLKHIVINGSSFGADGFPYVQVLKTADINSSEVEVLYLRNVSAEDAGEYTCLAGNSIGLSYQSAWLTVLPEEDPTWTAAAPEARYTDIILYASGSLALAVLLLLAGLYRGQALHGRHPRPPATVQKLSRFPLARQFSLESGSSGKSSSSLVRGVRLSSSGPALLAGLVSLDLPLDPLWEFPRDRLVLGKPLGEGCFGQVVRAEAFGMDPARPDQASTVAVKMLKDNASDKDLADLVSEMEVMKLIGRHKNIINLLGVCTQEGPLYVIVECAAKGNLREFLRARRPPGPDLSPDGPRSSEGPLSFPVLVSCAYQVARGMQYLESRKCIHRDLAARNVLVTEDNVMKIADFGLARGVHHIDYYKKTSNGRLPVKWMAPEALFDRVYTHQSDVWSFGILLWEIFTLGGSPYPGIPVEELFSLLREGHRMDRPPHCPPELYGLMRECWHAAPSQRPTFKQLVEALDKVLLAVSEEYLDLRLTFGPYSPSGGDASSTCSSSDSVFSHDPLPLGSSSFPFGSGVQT

Turning to `COc1cncc(-c2cc3c(cn2)CN(c2c(F)c(OC)cc(OC)c2F)C(=O)C32CC2)c1` [Example 10, 2′-(2,6-difluoro-3,5-dimethoxyphenyl)-6′-(5-methoxypyridin-3-yl)-1′H-spiro[cyclopropane-1,4′-[2,7]naphthyridin]-3′(2′H)-one], the IC50 is 10 to 30 nM in assay [1] (setting [5]); 10 to 30 nM in assay [1] (pre-incubated for 4 hours); 10 to 30 nM in assay [2] (setting [5]); 10 to 30 nM in assay [2] (pre-incubated for 4 hours); < 10 nM in assay [3] (setting [5]); < 10 nM in assay [3] (pre-incubated for 4 hours). The half-inhibitory concentration (IC50) in assay [4] (FGFR1 IC50 (nM), pre-incubated for 5 to 10 minutes) was in the range of 30 to 200 nM; in assay [4] (FGFR1 IC50 (nM), pre-incubated for 4 hours), 30 to 200 nM. In addition, the “FGFR1/FGFR3 IC50 ratio” value in assay [2] (pre-incubated for 4 hours) is >1. The “FGFR1/FGFR4 IC50 ratio” value in assay [3] (setting [5]) and in assay [3] (pre-incubated for 4 hours) was >25 each time. Moreover, the “FGFR2/FGFR4 IC50 ratio” value in assay [3] (setting [5]) is listed as >10; in assay [3] (pre-incubated for 4 hours), >25. The “FGFR3/FGFR4 IC50 ratio” value in assay [3] (setting [5]) and in assay [3] (pre-incubated for 4 hours) was >10 each time.

In the case of `COc1cc(OC)c(F)c(N2Cc3cnc(-c4cncc(Cl)c4)cc3C3(CC3)C2=O)c1F` [Example 11, 6′-(5-chloropyridin-3-yl)-2′-(2,6-difluoro-3,5-dimethoxyphenyl)-1′H-spiro[cyclopropane-1,4′-[2,7]naphthyridin]-3′(2′H)-one], the IC50 in assay [1] (setting [5]) was > 200 nM; in assay [1] (pre-incubated for 4 hours), > 200 nM; in assay [2] (setting [5]), 30 to 200 nM; in assay [2] (pre-incubated for 4 hours), > 200 nM; in assay [3] (setting [5]) it was 10 to 30 nM; in assay [3] (pre-incubated for 4 hours) it was 10 to 30 nM. The IC50 in assay [4] (setting [6]) and in assay [4] (setting [7]) was > 200 nM each time. In addition, the “FGFR1/FGFR3 IC50 ratio” value in assay [2] (pre-incubated for 4 hours) is reported as >1. Further, the “FGFR1/FGFR4 IC50 ratio” value in assay [3] (setting [5]) is >50; in assay [3] (pre-incubated for 4 hours), >25. Also, the “FGFR2/FGFR4 IC50 ratio” value is recorded as >20 in assay [3] (setting [5]) and >25 in assay [3] (pre-incubated for 4 hours). The “FGFR3/FGFR4 IC50 ratio” value in assay [3] (setting [5]) is >25; in assay [3] (pre-incubated for 4 hours) it was >10.

For the compound `COc1cc(OC)c(F)c(N2Cc3cnc(-c4cncc(-n5ccnc5)c4)cc3C3(CC3)C2=O)c1F` [Example 12, 6′-(5-(1H-imidazol-1-yl)pyridin-3-yl)-2′-(2,6-difluoro-3,5-dimethoxyphenyl)-1′H-spiro[cyclopropane-1,4′-[2,7]naphthyridin]-3′(2′H)-one], the IC50 in assay [1] (setting [5]) is 30 to 200 nM; in assay [1] (pre-incubated for 4 hours), 30 to 200 nM; in assay [2] (setting [5]), 30 to 200 nM; in assay [2] (pre-incubated for 4 hours), 30 to 200 nM; in assay [3] (setting [5]), < 10 nM; in assay [3] (pre-incubated for 4 hours), < 10 nM. Also, the IC50 in assay [4] (setting [6]) and in assay [4] (setting [7]) was > 200 nM throughout. In assay [2] (pre-incubated for 4 hours), the “FGFR1/FGFR3 IC50 ratio” value is listed as >3. Besides, the “FGFR1/FGFR4 IC50 ratio” value in assay [3] (setting [5]) and in assay [3] (pre-incubated for 4 hours) was >50 throughout. Also, the “FGFR2/FGFR4 IC50 ratio” value in assay [3] (setting [5]) and in assay [3] (pre-incubated for 4 hours) was >25 in each case. The “FGFR3/FGFR4 IC50 ratio” value is listed as >20 in assay [3] (setting [5]) and >10 in assay [3] (pre-incubated for 4 hours).

`COc1cc(OC)c(F)c(N2Cc3cnc(-c4cncc(C(=O)N5CCOCC5)c4)cc3C3(CC3)C2=O)c1F` [Example 13, 2′-(2,6-difluoro-3,5-dimethoxyphenyl)-6′-(5-(morpholine-4-carbonyl)pyridin-3-yl)-1′H-spiro[cyclopropane-1,4′-[2,7]naphthyridin]-3′(2′H)-one]: the IC50 in assay [1] (setting [5]) was 30 to 200 nM; in assay [1] (pre-incubated for 4 hours) it was 30 to 200 nM; in assay [2] (setting [5]), 30 to 200 nM; in assay [2] (pre-incubated for 4 hours) it was 30 to 200 nM; in assay [3] (setting [5]) it was < 10 nM; in assay [3] (pre-incubated for 4 hours), < 10 nM. The IC50 in assay [4] (setting [6]) and in assay [4] (setting [7]) was > 200 nM each time. In addition, the “FGFR1/FGFR3 IC50 ratio” value in assay [2] (pre-incubated for 4 hours) was >3. Besides, the “FGFR1/FGFR4 IC50 ratio” value in assay [3] (setting [5]) and in assay [3] (pre-incubated for 4 hours) was >50 throughout. Also, the “FGFR2/FGFR4 IC50 ratio” value in assay [3] (setting [5]) is >20; in assay [3] (pre-incubated for 4 hours), >25. The “FGFR3/FGFR4 IC50 ratio” value in assay [3] (setting [5]) and in assay [3] (pre-incubated for 4 hours) was >10 each time.

The values above are taken from patent US9708318B2, “Bicyclic heterocycles as FGFR4 inhibitors” (Incyte Corporation, priority 2015, dated 2017).
